This is an account of results in patent publication US20120277238A1, “PHARMACEUTICAL COMPOSITION CONTAINING FUSED HETERO-RING DERIVATIVE” (Shionogi & Co., Ltd, priority 2009, published 2012).

Structures are written as SMILES.

For this assay, the target named is T1, human HRH4 (Homo sapiens, UniProt Q9H3N8).
T1 construct: purchased PerkinElmer
T1 sequence (Q9H3N8 whole entry): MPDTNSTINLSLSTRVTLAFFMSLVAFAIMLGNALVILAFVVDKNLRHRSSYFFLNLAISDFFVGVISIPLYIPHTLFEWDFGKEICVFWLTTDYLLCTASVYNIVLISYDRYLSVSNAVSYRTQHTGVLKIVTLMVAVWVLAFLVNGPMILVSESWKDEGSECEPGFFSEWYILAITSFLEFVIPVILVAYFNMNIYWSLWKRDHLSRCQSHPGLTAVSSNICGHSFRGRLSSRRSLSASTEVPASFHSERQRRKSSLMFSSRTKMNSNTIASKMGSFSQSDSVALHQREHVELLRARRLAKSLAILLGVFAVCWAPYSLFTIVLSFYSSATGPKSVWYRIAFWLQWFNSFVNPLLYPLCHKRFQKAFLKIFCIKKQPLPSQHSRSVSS
Briefly: Histamine H4 receptor binding test ([3H]-Histamine radioligand binding). To be noted: membrane fraction of CHO-K1 expressing human HRH4; [3H]-Histamine 15 nM; Ki by Cheng-Prusoff. As for the experimental part: Membrane fraction of CHO-K1 stably expressing human HRH4 was purchased from PerkinElmer. Radioligand binding assay was performed in 96 well polypropylene assay plates in a total assay volume of 150 μL. Membrane suspension (15 μg of protein) was mixed with [3H]-Histamine (PerkinElmer) at 15 nM and compounds at various concentration in 50 mM Tris-HCl pH7.4, 5 mM EDTA buffer. Assays were incubated for 60 min at room temperature, then the reactions were terminated by rapid filtration over 96-well GF/B filter plates (PerkinElmer) presoaked in 0.5% polyethyleneimine. Unbound radioactivity was eliminated by six times of wash with 350 μL of ice-cold 50 mM Tris pH7.4 buffer. When the filter plates were dried, Microscint-MS liquid scintillation fluid (PerkinElmer) was added to each well and retained radioactivity plates were counted in a Topcount liquid scintillation counter (PerkinElmer). Specific binding was calculated by subtracting non-specific binding determined in the presence of 100 μM unlabeled histamine from total count.
The resulting data were analyzed for IC50 using the non-linear regression on XLfit.
Affinity values (Ki) were then determined by Cheng-Prusoff equation.
The Ki is a measure of affinity in units of concentration, obtained from inhibition or displacement. A low value points to tighter binding. Turning to `CC(=O)n1c(C(=O)N2CCN(C)CC2)cc2c1CCCC2` [Compound I-059], affinity was put at a Ki of 270 nM.
As to `COC1CCc2[nH]c(C(=O)N3CCN(C)CC3)cc2C1` (stereo not drawn) [Compound I-023], the affinity, expressed as Ki, was 990 nM.
Regarding `O=C(c1cc2c([nH]1)CCC(F)(F)C2O)N1CCN2CCCC2C1` (stereo not drawn) [Compound I-068], affinity was put at a Ki of 520 nM.
For the compound `O=C(c1cc2c([nH]1)CCCC2)N1C[C@H]2CCCN[C@H]2C1` [Compound I-062], the affinity, expressed as Ki, was 260 nM.
In turn, `CN1CCN(C(=O)c2cc3c([nH]2)CC(O)C(Cl)(Cl)C3)CC1` (stereo not drawn) [Compound I-076] registered a Ki of 25 nM.
For the compound `CN1CCN(C(=O)c2cc3c([nH]2)CCCC3O)CC1` (stereo not drawn) [Compound I-051], the Ki was found to be 250 nM.
Regarding `COC1c2cc(C(=O)N3CCNCC3)[nH]c2CCC1(Cl)Cl` (stereo not drawn) [Compound I-067], the Ki was 480 nM.
In turn, `CN1CCN(C(=O)c2cc3c([nH]2)[C@H]2CC[C@@H]3C2)CC1` [Compound I-046] came in with a Ki of 290 nM.
`CN1CCN(C(=O)c2cc3c([nH]2)C(=O)CCC3)CC1` [Compound I-024] yielded a Ki of 710 nM.
In turn, `O=C(c1cc2c([nH]1)CCCC2)N1CCNCC1` [Compound I-005] came in with a Ki of 250 nM.
For `CN1CCN(C(=O)c2nc3c([nH]2)CCCC3)CC1` [Compound I-049], the affinity corresponds to a Ki of 150 nM.
`CN1CCN(C(=O)c2cc3c([nH]2)CCC=C3)CC1` [Compound I-021] returned a Ki of 120 nM.
Then `CCC1(O)CCCc2cc(C(=O)N3CCN(C)CC3)[nH]c21` (stereo not drawn) [Compound I-041], with 590 nM; and `CC1CCc2[nH]c(C(=O)N3CCN(C)CC3)cc2C1` (stereo not drawn) [Compound I-015], with 86 nM; and `CN1CCN(C(=O)c2cc3c([nH]2)CCCC3)CC1` [Compound I-048], with 110 nM.
Compound `O=C(c1nc2c([nH]1)CCCC2)N1CCNCC1` [Compound I-008] came in with a Ki of 420 nM.
`CN1CCN(C(=O)c2cc3c([nH]2)CCC(Cl)C3)CC1` (stereo not drawn) [Compound I-020] came in with a Ki of 22 nM.
Compound `CC1CCc2cc(C(=O)N3CCN(C)CC3)[nH]c2C1` (stereo not drawn) [Compound I-017] had a Ki of 570 nM.
Then `Cc1ccc(S(=O)(=O)OC2CCc3[nH]c(C(=O)N4CCN(C)CC4)cc3C2)cc1` (stereo not drawn) [Compound I-019], with 200 nM; and `CN1CCN(C(=O)c2cc3c([nH]2)CC(O)CC3)CC1` (stereo not drawn) [Compound I-075], with 20 nM.
Then `O=C(c1cc2c([nH]1)CCC(Cl)(Cl)C2)N1CCNCC1` [Compound I-055], with 23 nM; and `CN1CCN(C(=O)c2cc3c([nH]2)CC=C(F)C3)CC1` [Compound I-065], with 35 nM.
`CN1CCN(C(=O)c2cc3c([nH]2)CCOC3)CC1` [Compound I-052] registered a Ki of 380 nM.
Take `CCOC1c2cc(C(=O)N3C[C@H]4CCCN[C@H]4C3)[nH]c2CCC1(F)F` (stereo partly drawn) [Compound I-070]: the Ki is 270 nM.
Compound `COC1c2cc(C(=O)N3CCN(C)CC3)[nH]c2CCC1(Cl)Cl` (stereo not drawn) [Compound I-069] came in with a Ki of 220 nM.
As for `CN1CCN(C(=O)c2cc3c([nH]2)CCC(Cl)(Cl)C3O)CC1` (stereo not drawn) [Compound I-066], the Ki is 350 nM.
For the compound `CN1CCN(C(=O)c2cc3c([nH]2)CCC(F)(F)C3O)CC1` (stereo not drawn) [Compound I-054], the Ki was 230 nM.
Compound `O=C(c1cc2c([nH]1)CCC(F)(F)C2O)N1C[C@H]2CCCN[C@H]2C1` (stereo partly drawn) [Compound I-064] gave a Ki of 180 nM.
In turn, `CN1CCN(C(=O)c2cc3c([nH]2)CCC(c2ccccc2)=C3)CC1` [Compound I-027] showed a Ki of 760 nM.
In turn, `CN1CCN(C(=O)c2cc3c([nH]2)CCC(F)C3O)CC1` (stereo not drawn) [Compound I-053] showed a Ki of 140 nM.
The compound `O=C(c1cc2c([nH]1)CCC(F)(F)C2)N1CCNCC1` [Compound I-056] gave a Ki of 130 nM.
`CC(C)C(=O)n1c(C(=O)N2CCN(C)CC2)cc2c1CCCC2` [Compound I-061] showed a Ki of 210 nM.
On to `CN1CCN(C(=O)c2cc3c([nH]2)CCC(C)(C)C3)CC1` [Compound I-022], for which the Ki was 70 nM.
For `C#CC1=Cc2cc(C(=O)N3CCN(C)CC3)[nH]c2CC1` [Compound I-033], the Ki stood at 320 nM.
As to `CN1CCN(C(=O)c2cc3c([nH]2)C(O)CCC3)CC1` (stereo not drawn) [Compound I-036], the affinity corresponds to a Ki of 88 nM.
As for `CC1CCCc2[nH]c(C(=O)N3CCN(C)CC3)cc21` (stereo not drawn) [Compound I-009], the affinity corresponds to a Ki of 150 nM.
In the case of `CNC1CCN(C(=O)c2cc3c([nH]2)CCCC3)C1` (stereo not drawn) [Compound I-003] it was 680 nM; in that of `CN1CCN(C(=O)c2cc3c([nH]2)C(C)(O)CCC3)CC1` (stereo not drawn) [Compound I-040], 180 nM.
In the case of `CN1CCN(C(=O)c2cc3c([nH]2)CCC(Cl)(Cl)C3)CC1` [Compound I-047] it was 14 nM; in that of `CN1CCN(C(=O)c2cc3c([nH]2)CCC(=O)C3)CC1` [Compound I-016], 370 nM; in that of `CN1CCN(C(=O)c2cc3c([nH]2)CCCCC3)CC1` [Compound I-013], 300 nM.
Then `CN1CCN(C(=O)c2cc3c([nH]2)CCC(C(F)(F)F)C3)CC1` (stereo not drawn) [Compound I-045], with 910 nM; and `CN1CCN(C(=O)c2cc3c([nH]2)C(C)(O)CC3)CC1` (stereo not drawn) [Compound I-057], with 440 nM.
The compound `O=C(c1cc2c([nH]1)CCCC2)N1CC2CCCNC2C1` (stereo not drawn) [Compound I-006] came in with a Ki of 230 nM.
In the case of `CC1CCCc2cc(C(=O)N3CCN(C)CC3)[nH]c21` (stereo not drawn) [Compound I-026] it was 100 nM.
